Values of other authors in US12708613B2, “Methods for improving physical exercise performance” (NOMIO NUTRITION AB, priority 2020, dated 2026).

Tested on: mice

With `C[S+]([O-])CCCCN=C=S` (centres unmarked) [sulforaphane, 1-Isothiocyanato-4-(methanesulfinyl)butane] as the molecule, how does the “effect on glucose levels” value (mice models) read?
Its value is “no effect”.

And the endurance (mice, injected (intraperitoneally, 25 mg/kg body weight))?
Its endurance is “improved endurance”.
